We go through 30 compounds from patent US9732094B2, “Arylquinazolines” (Merck Patent GmbH, priority 2013, dated 2017).

One test deals with DNA-PK (Homo sapiens (Human), UniProt P78527). As to the kind of experiment: DNA-PK assay (biochemical), flashplate 33P-ATP kinase assay. Here is the method: A) DNA-PK Assay (Biochemical)
The kinase assay was carried out in streptavidin-coated […] microtitre flashplates. […] The reaction was stopped using 50 μl/well of 200 mM EDTA. After incubation for a further 30 min at room temperature, the liquid was removed. Each well was washed three times with 100 μl of 0.9% saline solution. A nonspecific reaction (blank value) was determined using 10 μM of an innate kinase inhibitor. The radioactivity measurement was carried out using a TopCount. IC50 values were calculated in RS1.

In test [1] the target is DNA-PK phosphorylation at serine 2056 (Homo sapiens (Human), UniProt P78527). The experiment in a line: DNA-PK phosphorylation at serine 2056 (cellular), bleomycin-treated HCT116 cells, ELISA. The test is classed as cell-based. The settings on record: read-out: IC50 pDNA-PK. As to the method: HCT116 cells were cultivated at 37° C. and 10% CO2 in MEM alpha medium with 10% of foetal calf serum and 2 mM glutamine. The cells were detached from the base of the culture vessels with the aid of trypsin/EDTA, centrifuged off in centrifuge tubes, taken up in fresh medium, and the cell density was determined. 100,000 cells were sown in 1 ml of culture medium per cavity of a 24-well cell culture plate and cultivated overnight. Next day, 10 μM bleomycin (DNA intercalator and inductor of DNA double-strand breaks) and test substances in fresh culture medium were added to the cells, and these were cultivated for a further six hours. […] The 96-well ELISA plates were subsequently treated with a detection antibody (Abcam ab79444: total DNA-PK) and a streptavidin-HRP conjugate. The development of the enzymatic reaction was carried out with the aid of a chemiluminescent reagent, the chemiluminescence was measured with the aid of a Mithras LB940. The signals with the phospho-DNA-PK-specific antibody were standardised to the signal with the antibody against the total protein DNA-PKc. […] The DMSO control was used as blank.
For orientation: In an ELISA, binding on a coated surface is turned into a signal by an enzyme label.

[2] abbreviates: cellular, HCT116 cells, 10 μM bleomycin, six hours.
Setting [3] is: cellular DNA-PK phosphorylation at serine 2056, HCT116.

The structures appear in SMILES notation. pIC50: −log10 of the molar value. Read-outs that look alike come from different tables or passages of the source. A value given as a limit tells only on which side of the number the result lay.

Broadly, the pIC50 is the IC50 on a negative log10 scale, so that one unit is a factor of ten.

In the case of `OC(c1cccnn1)c1cc(-c2ncnc3cc(N4CCOCC4)ccc23)c(F)cc1Cl` (single isomer, unassigned) [Example 30, [2-Chloro-4-fluoro-5-(7-morpholin-4-yl-quinazolin-4-yl)phenyl]-pyridazin-3-ylmethanol], the pIC50 is > 8.52 on DNA-PK (enzymatic, 5 μM ATP) and > 6.30 in test [1] (setting [2]).
In the same order, the values of `COc1ccc(C(O)c2cc(-c3ncnc4cc(N5CCOCC5)sc34)c(F)cc2Cl)nn1` (single isomer, unassigned) [Example 127, [2-Chloro-4-fluoro-5-(6-morpholin-4-ylthieno[3,2-d}-pyrimidin-4-yl)-phenyl]-(6-methoxy-pyridazin-3-yl)-methanol] are 8.15 to 8.52 and 5.00 to 5.30.
`COc1nccnc1C(O)c1ccc(F)c(-c2ncnc3cc(N4CCOCC4)cc(F)c23)c1` (single isomer, unassigned) [Example 253, [4-Fluoro-3-(5-fluoro-7-morpholin-4-yl-quinazolin-4-yl)-phenyl]-(3-methoxy-pyrazin-2-yl)-methanol]: the pIC50 is 7.52 to 8.15 at DNA-PK (biochemical DNA-PK assay) and 5.00 to 5.30 in test [1] (setting [3]).
Take `Cc1nccnc1C(O)c1cc(-c2ncnc3cc(N4CCOCC4)ccc23)c(F)cc1F` (stereo not shown) [Example 85]: the pIC50 against DNA-PK (enzymatic, 5 μM ATP) was > 8.52; in test [1] (setting [2]) it was 5.30 to 6.30.
`OC(c1ccc(F)c(-c2ncnc3cc(N4CCOCC4)sc23)c1)c1nccs1` (stereo not shown) [Example 146, [4-fluoro-3-(6-morpholin-4-ylthieno[3,2-d]pyrimidin-4-yl)phenyl]thiazol-2-ylmethanol]: the pIC50 in test [1] (Table 5, HCT116 cells) was 5.30 to 6.30.
On to `CC(O)(c1cncc(-c2ncnc3cc(N4CCOCC4)ccc23)c1)c1nccs1` (stereo not shown) [Example 151, 1-[5-(7-Morpholin-4-ylquinazolin-4-yl)-pyridin-3-yl]-1-thiazol-2-ylethanol], for which the pIC50 on DNA-PK (Table 5) was < 7.52.
Same read-out and setting: next, `CC(O)(c1cc(-c2ncnc3cc(N4CCOCC4)ccc23)ccn1)c1nccs1` (stereo not shown) [Example 153, 1-[4-(7-Morpholin-4-ylquinazolin-4-yl)-pyridin-2-yl]-1-thiazol-2-ylethanol]: < 7.52; `Cc1ccc(C(C)(O)c2nccs2)cc1-c1ncnc2cc(N3CCOCC3)ccc12` (stereo not shown) [Example 155, 1-[4-methyl-3-(7-morpholin-4-yl-quinazolin-4-yl)-phenyl)-1-thiazol-2-ylethanol]: < 7.52.
For `CC(O)(c1cc(-c2ncnc3cc(N4CCOCC4)ccc23)cs1)c1nccs1` (stereo not shown) [Example 156, 1-[4-(7-Morpholin-4-ylquinazolin-4-yl)-thiophen-2-yl]-1-thiazol-2-ylethanol], the pIC50 on DNA-PK (Table 5) is < 7.52.
In the case of `OC(c1ccc(-c2ncnc3cc(N4CCOCC4)ccc23)s1)c1nccs1` (stereo not shown) [Example 160, [5-(7-Morpholin-4-ylquinazolin-4-yl)-thiophen-2-yl]-thiazol-2-yl-methanol], the negative logarithm of the IC50 (pIC50) at DNA-PK (Table 5) was < 7.52.
Turning to `CC(O)(c1nccs1)c1cccc(-c2ncnc3cc(N4CCOCC4)ccc23)c1F` (stereo not shown) [Example 162, 1-[2-Fluoro-3-(7-morpholin-4-yl-quinazolin-4-yl)-phenyl]-1-thiazol-2-ylethanol], the pIC50 at DNA-PK (Table 5) was < 7.52.
The same measure, in the same setting: the same measure for `OC(c1csc(-c2ncnc3cc(N4CCOCC4)ccc23)c1)c1nccs1` (stereo not shown) [Example 164, [5-(7-Morpholin-4-ylquinazolin-4-yl)-thiophen-3-yl]-thiazol-2-yl-methanol]: < 7.52.
Turning to `OC(c1cc(F)cc(-c2ncnc3cc(N4CCOCC4)ccc23)c1)c1nccs1` (stereo not shown) [Example 169, [3-Fluoro-5-(7-morpholin-4-yl-quinazolin-4-yl)-phenyl]thiazol-2-yl-methanol], the pIC50 at DNA-PK (Table 5) is 7.52 to 8.15; in test [1] (Table 5, HCT116 cells) it was 4.52 to 5.00.
As for `OC(c1nccs1)c1cc(-c2ncnc3cc(N4CCOCC4)ccc23)ccc1F` (stereo not shown) [Example 170, [2-Fluoro-5-(7-morpholin-4-yl-quinazolin-4-yl)-phenyl]thiazol-2-yl-methanol], the pIC50 against DNA-PK (Table 5) is 7.52 to 8.15; in test [1] (Table 5, HCT116 cells), 5.00 to 5.30.
Turning to `OC(c1cccc(-c2ncnc3cc(N4CCOCC4)ccc23)c1)(c1nccs1)C(F)(F)F` (stereo not shown) [Example 172, 2,2,2-Trifluoro-1-[3-(7-morpholin-4-yl-quinazolin-4-yl)-phenyl]-1-thiazol-2-ylethanol], the pIC50 on DNA-PK (Table 5) is 7.52 to 8.15; in test [1] (Table 5, HCT116 cells), 4.52 to 5.00.
The matching figures for `c1nc(N2CCCCC2)c2scc(N3CCOCC3)c2n1` [Example 174, 7-Morpholin-4-yl-4-piperidin-1-yl-thieno[3,2-d}-pyrimidine]: 7.52 to 8.15 and 4.52 to 5.00.
Take `COC(c1ccc(F)c(-c2ncnc3cc(N4CCOCC4)ccc23)c1)c1nccs1` (stereo not shown) [Example 175, 4-[2-Fluoro-5-(methoxy-thiazol-2-ylmethyl)phenyl]-7-morpholin-4-yl-quinazoline]: at DNA-PK (Table 5), the negative logarithm of the IC50 (pIC50) is < 7.52.
Same read-out and setting: next, `COC(c1ccc(F)c(-c2ncnc3cc(N4CCOCC4)ccc23)c1)c1nccs1` (stereo not shown) [Example 176, 4-[2-Fluoro-5-(-methoxy-thiazol-2-ylmethyl)phenyl]-7-morpholin-4-yl-quinazoline]: 7.52 to 8.15.
Take `OC(c1cccc(-c2ncnc3cc(N4CCOCC4)sc23)c1)c1nccs1` (stereo not shown) [Example 182, [3-(6-Morpholin-4-ylthieno[3,2-d}-pyrimidin-4-yl)-phenyl]thiazol-2-yl-methanol]: the pIC50 against DNA-PK (Table 5) was 7.52 to 8.15; in test [1] (Table 5, HCT116 cells), 5.00 to 5.30.
On to `OC(c1cncc(-c2ncnc3cc(N4CCOCC4)ccc23)c1)c1nccs1` (stereo not shown) [Example 183, [5-(7-Morpholin-4-ylquinazolin-4-yl)-pyndin-3-yl]thiazol-2-ylmethanol], for which, at DNA-PK (Table 5), the pIC50 is 7.52 to 8.15.
As for `OC(c1cncc(-c2ncnc3cc(N4CCOCC4)ccc23)c1)c1nccs1` (stereo not shown) [Example 184, [5-(7-Morpholin-4-ylquinazolin-4-yl)-pyridin-3-yl]thiazol-2-ylmethanol], on DNA-PK (Table 5), the pIC50 is 7.52 to 8.15.
Regarding `OC(c1ccc(F)c(-c2ncnc3cc(N4CCOCC4)ccc23)c1)c1nccs1` (stereo not shown) [Example 212, [4-Fluoro-3-(7-morpholin-4-yl-quinazolin-4-yl)-phenyl]thiazol-2-ylmethanol], the negative logarithm of the IC50 (pIC50) against DNA-PK (enzymatic, 5 μM ATP) is > 8.52; in test [1] (setting [2]), 4.52 to 5.00.
As for `OC(c1ccc(F)c(-c2ncnc3cc(N4CCOCC4)ccc23)c1)c1nccs1` (stereo not shown) [Example 213, [4-Fluoro-3-(7-morpholin-4-yl-quinazolin-4-yl)-phenyl]thiazol-2-ylmethanol], the pIC50 is > 8.52 against DNA-PK (enzymatic, 5 μM ATP) and 5.00 to 5.30 in test [1] (setting [2]).
For the compound `COc1nccnc1C(O)c1cc(-c2ncnc3cc(N4CCOCC4)cc(F)c23)c(F)cc1Cl` (stereo not shown) [Example 250, [2-Chloro-4-fluoro-5-(5-fluoro-7-morpholin-4-yl-quinazolin-4-yl)-phenyl]-(3-methoxy-pyrazin-2-yl)-methanol], the pIC50 in test [1] (setting [3]) is > 6.30.
On the same count and under the same terms, the same measure for `COc1nccnc1C(O)c1cc(-c2ncnc3cc(N4CCOCC4)cc(F)c23)c(F)cc1Cl` (stereo not shown) [Example 266, [2-Chloro-4-fluoro-5-(5-fluoro-7-morpholin-4-yl-quinazolin-4-yl)-phenyl]-(3-methoxy-pyrazin-2-yl)-methanol]: > 6.30.
With `Cn1cnc2ncnc(C(O)c3cc(-c4ncnc5cc(N6CCOCC6)ccc45)c(F)cc3F)c21` (stereo not shown) [Example 386, [2,4-Difluoro-5-(7-morpholin-4-yl-quinazolin-4-yl)-phenyl]-(7-methyl-7H-purin-6-yl)-methanol], the results for the pIC50 (at DNA-PK (biochemical DNA-PK assay); in test [1] (setting [3])) were 8.15 to 8.52 and 5.00 to 5.30, respectively.
The matching figures for `Cn1cnc2ncnc(C(O)c3cc(-c4ncnc5cc(N6CCOCC6)ccc45)c(F)cc3F)c21` (stereo not shown) [Example 431, [2,4-Difluoro-5-(7-morpholin-4-yl-quinazolin-4-yl)-phenyl]-(7-methyl-7H-purin-6-yl)-methanol]: 7.52 to 8.15 and 5.30 to 6.30.
In the same order, the values of `OC(c1cc(-c2ncnc3cc(N4CCOCC4)ccc23)c(F)cc1F)c1ncnc2ccoc12` (stereo not shown) [Example 445, [2,4-Difluoro-5-(7-morpholin-4-yl-quinazolin-4-yl)-phenyl]furo[3,2-d}-pyrimidin-4-yl-methanol] are 8.15 to 8.52 and > 6.30.
For the compound `OC(c1cc(-c2ncnc3cc(N4CCOCC4)ccc23)c(F)cc1F)c1ncnc2ccoc12` (stereo not shown) [Example 446, [2,4-Difluoro-5-(7-morpholin-4-yl-quinazolin-4-yl)-phenyl]furo[3,2-d}-pyrimidin-4-yl-methanol], the figures for the pIC50 (against DNA-PK (biochemical DNA-PK assay); in test [1] (setting [3])) were > 8.52 and 5.30 to 6.30, respectively.
The matching figures for `OC(c1ccc(F)c(-c2ncnc3cc(N4CCOCC4)ccc23)c1)c1nccnc1I` (stereo not shown) [Example 462, [4-Fluoro-3-(7-morpholin-4-yl-quinazolin-4-yl)-phenyl]-(3-iodo-pyrazin-2-yl)-methanol]: > 8.52 and > 6.30.
